Legend:
HEK293 cells = experiment: mWasabi fluorescence assay (protein expression of capped mRNA) in HEK293 cells; type: cell-based; conditions: mWasabi encoding mRNA capped with the cap analog, 24 hours post transfection, 12.5 ng mRNA per well
Experimental: (§1) Wasabi and FLuc mRNAs capped with cap analog ARCA, cap analog A-1, cap analog A-2, cap analog 3′OMe, or cap analog A-Control (see Table 2) were prepared as described in International Patent Publication Nos. WO2017053297 and WO2023147352 which are incorporated herein by reference in their entirety.
(§2) The IVT template was used to prepare mWasabi encoding mRNA (970 nucleotides) with cap analogs A-control, 3′OMe, A-1 or A-2 by in-vitro transcription. The mRNAs were purified prior to use in assays described below. Protein expression was measured by Allele Biotechnology in cell-based assays.
(§3) mWasabi Fluorescence Assay:
(§4) The day before transfection: cells were seeded as follows: • HEK293 cells: 6.25×10^4/cm^2 • HeLa cells: 3.125×10^4/cm^2 • The cells were dissociated with TrypLE • HEK293 cells were seeded in 96 well plates coated with Poly-D-Lysine (50 μL at 100 μg/mL per well). • HeLa cells were seeded in 96 well plates (no coating required). • The cells were seeded in 100 μL of growth media (Growth Media: DMEM+10% FBS supplemented with GlutaMAX and MEM Non-Essential Amino Acids).
(§5) The day of transfection: Opti-MEM and MessengerMax Transfection Reagent were allowed to reach room temperature. Two tubes were set up for each mRNA (i.e., for each cap analog). […]
(§6) mWasabi fluorescent expression was quantified using Cytation 10 after 24 hours.

HeLa cells = experiment: mWasabi fluorescence assay (protein expression of capped mRNA) in HeLa cells; type: cell-based; conditions: mWasabi encoding mRNA capped with the cap analog, 24 hours post transfection, 12.5 ng mRNA per well
Experimental: as §1, §2, §3, §4, §5, §6

With “^N7-(4-chlorobenzyl)G3′OMeppp^m6A2′OMepG [Compound A-1]” the “fluorescence intensity (i.e., protein expression levels)” value (from here on “fluorescence intensity”) (HEK293 cells) was “comparable to that of mRNA capped with Cap 3′OMe or mRNA capped with A-control, and much higher than that of mRNA capped with ARCA cap” and the “fluorescence intensity” value (HeLa cells) was “comparable to that of mRNA capped with Cap 3′OMe or mRNA capped with A-control, and much higher than that of mRNA capped with ARCA cap”.
With “^m7, N2-butylG3′OMeppp^m6A2′OMepG [Compound A-2]” the “fluorescence intensity” value (HEK293 cells) was “comparable to that of mRNA capped with Cap 3′OMe or mRNA capped with A-control, and much higher than that of mRNA capped with ARCA cap” and the “fluorescence intensity” value (HeLa cells) was “comparable to that of mRNA capped with Cap 3′OMe or mRNA capped with A-control, and much higher than that of mRNA capped with ARCA cap”.

Source: patent US20250388620A1, “EFFICIENT METHOD FOR MAKING HIGHLY PURIFIED 5’- CAPPED OLIGONUCLEOTIDES” (TriLink BioTechnologies, LLC, priority 2022, published 2025)
